# Measurements: ChEMBL document CHEMBL5096241, “Discovery of 3-Aminopyrazole Derivatives as New Potent and Orally Bioavailable AXL Inhibitors” (J Med Chem, 2022)
# Tests used:
# [1] = biological target: T1, Tyrosine-protein kinase receptor UFO (Homo sapiens, UniProt P30530); assay: Inhibition of recombinant AXL (unknown origin) using poly (Glu,Tyr) 4:1 as substrate incubated for 60 mins in presence of ATP by ELISA
# T1 sequence (P30530 whole entry): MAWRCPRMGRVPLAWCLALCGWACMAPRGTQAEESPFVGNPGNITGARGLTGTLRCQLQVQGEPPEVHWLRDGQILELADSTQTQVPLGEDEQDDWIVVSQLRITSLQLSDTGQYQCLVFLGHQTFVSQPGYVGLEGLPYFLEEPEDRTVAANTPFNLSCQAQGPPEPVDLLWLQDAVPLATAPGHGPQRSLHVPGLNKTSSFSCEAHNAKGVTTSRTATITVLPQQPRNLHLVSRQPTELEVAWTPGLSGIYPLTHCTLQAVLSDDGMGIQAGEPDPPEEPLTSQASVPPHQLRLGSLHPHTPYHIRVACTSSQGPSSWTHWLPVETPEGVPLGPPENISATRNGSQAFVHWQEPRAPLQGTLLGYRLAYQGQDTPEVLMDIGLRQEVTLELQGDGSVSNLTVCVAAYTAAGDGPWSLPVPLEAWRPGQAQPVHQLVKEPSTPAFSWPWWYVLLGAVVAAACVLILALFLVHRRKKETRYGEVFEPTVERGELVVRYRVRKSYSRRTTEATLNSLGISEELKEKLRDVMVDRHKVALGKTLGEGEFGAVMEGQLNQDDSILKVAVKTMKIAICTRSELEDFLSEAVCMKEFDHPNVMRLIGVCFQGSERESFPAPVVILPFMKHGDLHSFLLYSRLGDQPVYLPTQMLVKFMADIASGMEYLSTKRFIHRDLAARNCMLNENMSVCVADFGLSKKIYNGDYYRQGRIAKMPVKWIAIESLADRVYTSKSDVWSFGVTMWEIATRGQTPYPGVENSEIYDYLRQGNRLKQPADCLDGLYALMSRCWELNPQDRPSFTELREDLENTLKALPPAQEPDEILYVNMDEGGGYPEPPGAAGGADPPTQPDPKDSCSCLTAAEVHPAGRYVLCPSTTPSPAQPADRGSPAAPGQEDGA
# [2] = test system: BaF3; assay: Antiproliferative activity against mouse BaF3 cells transfected with TEL-AXL assessed as inhibition of cell growth incubated for 72 hrs; format: functional, cell-based; conditions: BaF3, 72 h
IC50 [1] [nM],IC50 [2] [nM],Compound
7.8,,COCCOc1cc2nccc(Oc3ccc(Nc4nn(C)cc4C(=O)NC4CCCCC4)cc3F)c2cc1OC
12.5,,COc1cc2nccc(Oc3ccc(Nc4nn(C)cc4C(=O)NC4CCCCCCC4)cc3F)c2cc1OC
8.6,,COCCCOc1cc2nccc(Oc3ccc(Nc4nn(C)cc4C(=O)NC4CCCCC4)cc3F)c2cc1OC
586,,COc1cc2nccc(Oc3ccc(Nc4nn(C)cc4C(=O)NC4CC4)cc3F)c2cc1OC
120,,COc1cc2nccc(Oc3ccc(Nc4nn(C)cc4C(=O)NC4CCOCC4)cc3F)c2cc1OC
86.7,,COc1ccc(NC(=O)c2cn(C)nc2Nc2ccc(Oc3ccnc4cc(OC)c(OC)cc34)c(F)c2)cc1
238,,CCNC(=O)c1cn(C)nc1Nc1ccc(Oc2ccnc3cc(OC)c(OC)cc23)c(F)c1
> 1000,,CNC(=O)c1cn(C)nc1Nc1ccc(Oc2ccnc3cc(OC)c(OC)cc23)c(F)c1
40.4,,COc1cc2nccc(Oc3ccc(Nc4nn(C)cc4C(=O)NC4CCCCC4)cc3C)c2cc1OC
25.4,,COc1cc2nccc(Oc3ccc(Nc4nn(C)cc4C(=O)Nc4ccccc4)cc3F)c2cc1OC
64.4,,COc1cc2nccc(Oc3ccc(Nc4nn(C)cc4C(=O)Nc4ccc(OC(F)F)cc4)cc3F)c2cc1OC
> 1000,,COc1cc2nccc(Oc3ccc(Nc4nn(C)cc4C(=O)Nc4ccc(OC(F)(F)F)cc4)cc3F)c2cc1OC
40.4,,COc1cc2nccc(Oc3ccc(Nc4nn(C)cc4C(=O)NC4CCCCC4)cc3OC)c2cc1OC
> 1000,,COc1cc2nccc(Oc3ccc(Nc4nn(C)cc4C(=O)N4CCCCC4)cc3F)c2cc1OC
> 1000,,COc1cc2nccc(Oc3ccc(Nc4nn(C)cc4C(=O)Nc4ccc(C(C)C)cc4)cc3F)c2cc1OC
65.1,,COc1cc2nccc(Oc3ccc(Nc4nn(C)cc4C(=O)NC4CCC(F)(F)CC4)cc3F)c2cc1OC
40.1,,COc1cc2nccc(Oc3ccc(Nc4nn(C)cc4C(=O)Nc4ccc(F)cc4)cc3F)c2cc1OC
,98.8,"Nc1nc(Nc2ccc3c(c2)CCC(N2CCCC2)CC3)nn1-c1cc2c(nn1)-c1ccccc1CCC2 (single isomer, unassigned) [BEMCENTINIB]"
13.2,,COc1cc2nccc(Oc3ccc(Nc4nn(C)cc4C(=O)NC4C5CC6CC(C5)CC4C6)cc3F)c2cc1OC (stereo not given)
11.4,,COc1cc2nccc(Oc3ccc(Nc4nn(C)cc4C(=O)NC4CCCCC4)cc3F)c2cc1OC
142,,COc1cc2nccc(Oc3ccc(Nc4nn(C)cc4C(=O)NC(C)(C)C)cc3F)c2cc1OC
5.6,,COc1cc2c(Oc3ccc(Nc4nn(C)cc4C(=O)NC4CCCCC4)cc3F)ccnc2cc1OCCCN1CCCCC1
27.4,,COc1cc2nccc(Oc3ccc(Nc4nn(C)cc4C(=O)NC4CCCC4)cc3F)c2cc1OC
35,,COc1cc2nccc(Oc3ccc(Nc4nn(C)cc4C(=O)NC4CCCCC4)cc3)c2cc1OC
23.1,,COc1cc2nccc(Oc3ccc(Nc4nn(C)cc4C(=O)Nc4ccc(C)cc4)cc3F)c2cc1OC
2.9,9,COc1cc2c(Oc3ccc(Nc4nn(C)cc4C(=O)NC4CCCCC4)cc3F)ccnc2cc1OCCCN1CCN(C)CC1
3.2,11.6,COc1cc2c(Oc3ccc(Nc4nn(C)cc4C(=O)NC4CCCCC4)cc3F)ccnc2cc1OCCCN(C)C
265,,COc1cc2nccc(Oc3ccc(Nc4nn(C)cc4C(=O)Nc4cccc(F)c4)cc3F)c2cc1OC
